Measurements from patent publication US11891365B2, “3-alkyl-4-amido-bicyclic [4,5,0] hydroxamic acids as HDAC inhibitors” (Valo Health, Inc., priority 2015, dated 2024).

Target: T1, Full length human recombinant HDAC6 protein (Homo sapiens, UniProt Q9UBN7)
T1 sequence (Q9UBN7 1-1215): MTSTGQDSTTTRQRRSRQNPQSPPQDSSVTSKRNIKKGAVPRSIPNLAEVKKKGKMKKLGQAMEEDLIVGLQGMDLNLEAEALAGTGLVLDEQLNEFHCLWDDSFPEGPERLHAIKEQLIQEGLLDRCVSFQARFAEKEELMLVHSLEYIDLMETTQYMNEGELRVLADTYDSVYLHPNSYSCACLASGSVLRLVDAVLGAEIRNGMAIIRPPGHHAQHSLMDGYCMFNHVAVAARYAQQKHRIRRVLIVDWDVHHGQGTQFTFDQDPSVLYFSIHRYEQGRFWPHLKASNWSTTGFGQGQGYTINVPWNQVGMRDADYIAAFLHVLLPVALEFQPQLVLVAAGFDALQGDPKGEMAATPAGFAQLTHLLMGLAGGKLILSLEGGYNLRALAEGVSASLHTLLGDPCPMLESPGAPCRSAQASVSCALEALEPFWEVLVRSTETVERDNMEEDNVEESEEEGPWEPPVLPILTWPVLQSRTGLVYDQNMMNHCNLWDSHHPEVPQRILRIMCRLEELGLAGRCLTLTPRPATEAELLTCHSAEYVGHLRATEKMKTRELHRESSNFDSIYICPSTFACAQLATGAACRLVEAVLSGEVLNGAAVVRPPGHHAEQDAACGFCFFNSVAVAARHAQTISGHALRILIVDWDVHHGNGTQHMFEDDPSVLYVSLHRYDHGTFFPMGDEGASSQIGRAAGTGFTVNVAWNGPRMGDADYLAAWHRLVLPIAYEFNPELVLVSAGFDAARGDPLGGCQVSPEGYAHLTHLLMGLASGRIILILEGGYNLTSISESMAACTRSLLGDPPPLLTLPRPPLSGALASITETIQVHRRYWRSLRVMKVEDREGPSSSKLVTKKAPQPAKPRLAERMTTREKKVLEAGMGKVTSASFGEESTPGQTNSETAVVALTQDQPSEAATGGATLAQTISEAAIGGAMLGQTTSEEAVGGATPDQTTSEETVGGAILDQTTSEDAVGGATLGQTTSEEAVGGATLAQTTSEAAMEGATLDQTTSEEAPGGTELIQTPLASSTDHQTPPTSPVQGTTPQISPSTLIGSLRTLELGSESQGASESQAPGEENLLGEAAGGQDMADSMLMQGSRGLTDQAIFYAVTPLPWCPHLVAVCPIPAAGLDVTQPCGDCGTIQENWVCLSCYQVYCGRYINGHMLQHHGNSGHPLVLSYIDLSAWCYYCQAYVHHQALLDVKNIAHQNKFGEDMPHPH
Test: In vitro histone deacetylase assay: enzymatic HDAC6 electrophoretic mobility shift assay
Format: biochemical
Details: 1 nM enzyme, 2 μM peptide substrate RHKK(Ac)-NH2, 25° C., 12 concentrations; read-out: Inhibitory Concentration (IC50) Values against HDAC6, Activity Range

Question: For C[C@H]1CN(C=O)Cc2ccc(C(=O)NO)cc2O1 [(S)-4-formyl-N-hydroxy-2-methyl-2,3,4,5-tetrahydrobenzo[f][1,4]oxazepine-8-carboxamide], which IC50 is on record?
Answer: ≤ 100 nM

Question: Which IC50 does the source give for CC(C)[C@@H]1CN(C(=O)C2CCOCC2)Cc2ccc(C(=O)NO)cc2O1 [(R)-N-hydroxy-2-isopropyl-4-(tetrahydro-2H-pyran-4-carbonyl)-2,3,4,5-tetrahydrobenzo[f][1,4]oxazepine-8-carboxamide] here?
Answer: 100 to 500 nM

Question: How did the IC50 turn out when C[C@H]1COc2cc(C(=O)NO)ccc2CN1C(=O)[C@H]1CCOC1 [(S)-N-hydroxy-3-methyl-4-((S)-tetrahydrofuran-3-carbonyl)-2,3,4,5-tetrahydrobenzo[f][1,4]oxazepine-8-carboxamide] was run?
Answer: ≤ 100 nM

Question: O=C(NO)c1ccc2c(c1)OCCN(C(=O)C(Oc1ccccc1)c1ccccc1)C2 (centres unmarked) [N-hydroxy-4-(2-phenoxy-2-phenylacetyl)-2,3,4,5-tetrahydrobenzo[f][1,4]oxazepine-8-carboxamide] was tested. Which IC50 did it give?
Answer: 100 to 500 nM

Question: For O=C(NO)c1ccc2c(c1)OCCN(C(=O)c1ccc3c(c1)OCO3)C2 [4-(benzo[d][1,3]dioxole-5-carbonyl)-N-hydroxy-2,3,4,5-tetrahydrobenzo[f][1,4]oxazepine-8-carboxamide], which IC50 is on record?
Answer: ≤ 100 nM

Question: How did the IC50 turn out when CC(C)(C(=O)N1CCOc2cc(C(=O)NO)ccc2C1)c1cccnc1 [N-hydroxy-4-(2-methyl-2-(pyridin-3-yl)propanoyl)-2,3,4,5-tetrahydrobenzo[f][1,4]oxazepine-8-carboxamide] was run?
Answer: 100 to 500 nM

Question: CC(C)(C(=O)N1CCOc2cc(C(=O)NO)ccc2C1)c1ccc(F)cc1 [4-(2-(4-fluorophenyl)-2-methylpropanoyl)-N-hydroxy-2,3,4,5-tetrahydrobenzo[f][1,4]oxazepine-8-carboxamide] was tested. Which IC50 did it give?
Answer: 100 to 500 nM

Question: Which IC50 does the source give for O=C(NO)c1ccc2c(c1)O[C@H](c1ccccc1)CN(C(=O)C1CCOCC1)C2 [(R)-N-hydroxy-2-phenyl-4-(tetrahydro-2H-pyran-4-carbonyl)-2,3,4,5-tetrahydrobenzo[f][1,4]oxazepine-8-carboxamide] here?
Answer: 100 to 500 nM

Question: For COc1ccc2[nH]cc(CC(=O)N3CCOc4cc(C(=O)NO)ccc4C3)c2c1 [N-hydroxy-4-(2-(5-methoxy-1H-indol-3-yl)acetyl)-2,3,4,5-tetrahydrobenzo[f][1,4]oxazepine-8-carboxamide], which IC50 is on record?
Answer: > 500 nM

Question: CC(C)[C@H]1COc2cc(C(=O)NO)ccc2CN1C(=O)C1CCOCC1 [(S)-N-hydroxy-3-isopropyl-4-(tetrahydro-2H-pyran-4-carbonyl)-2,3,4,5-tetrahydrobenzo[f][1,4]oxazepine-8-carboxamide] was tested. Which IC50 did it give?
Answer: ≤ 100 nM

Question: For CC(C)(C(=O)N1CCOc2cc(C(=O)NO)ccc2C1)c1ccccn1 [N-hydroxy-4-(2-methyl-2-(pyridin-2-yl)propanoyl)-2,3,4,5-tetrahydrobenzo[f][1,4]oxazepine-8-carboxamide], which IC50 is on record?
Answer: 100 to 500 nM

Question: How did the IC50 turn out when C[C@H]1COc2cc(C(=O)NO)ccc2CN1C(=O)C1CCC(C)(C)O1 (stereo partly drawn) [(3S)-4-(5,5-dimethyltetrahydrofuran-2-carbonyl)-N-hydroxy-3-methyl-2,3,4,5-tetrahydrobenzo[f][1,4]oxazepine-8-carboxamide] was run?
Answer: ≤ 100 nM

Question: How did the IC50 turn out when C[C@H]1COc2cc(C(=O)NO)ccc2CN1C(=O)[C@H]1CC2CCC1O2 (stereo partly drawn) [(3S)-4-((2S)-7-oxabicyclo[2.2.1]heptane-2-carbonyl)-N-hydroxy-3-methyl-2,3,4,5-tetrahydrobenzo[f][1,4]oxazepine-8-carboxamide] was run?
Answer: ≤ 100 nM

Question: How did the IC50 turn out when C[C@H]1COc2cc(C(=O)NO)ccc2CN1C(=O)C1CCS(=O)(=O)C1 (stereo partly drawn) [(3S)-4-(1,1-dioxidotetrahydrothiophene-3-carbonyl)-N-hydroxy-3-methyl-2,3,4,5-tetrahydrobenzo[f][1,4]oxazepine-8-carboxamide] was run?
Answer: ≤ 100 nM

Question: With O=C(NO)c1ccc2c(c1)OCCN(C(=O)C1CCS(=O)(=O)CC1)C2 [4-(1,1-dioxidotetrahydro-2H-thiopyran-4-carbonyl)-N-hydroxy-2,3,4,5-tetrahydrobenzo[f][1,4]oxazepine-8-carboxamide] as the compound, how does the IC50 read?
Answer: ≤ 100 nM

Question: C[C@H]1COc2cc(C(=O)NO)ccc2CN1C(=O)C1CCCCC1 [(S)-4-(cyclohexanecarbonyl)-N-hydroxy-3-methyl-2,3,4,5-tetrahydrobenzo[f][1,4]oxazepine-8-carboxamide] was tested. Which IC50 did it give?
Answer: ≤ 100 nM

Question: With O=C(NO)c1ccc2c(c1)OCCN(C(=O)C1Cc3ccccc3C1)C2 [4-(2,3-dihydro-1H-indene-2-carbonyl)-N-hydroxy-2,3,4,5-tetrahydrobenzo[f][1,4]oxazepine-8-carboxamide] as the compound, how does the IC50 read?
Answer: ≤ 100 nM

Question: Which IC50 does the source give for CC(C)(C(=O)N1CCOc2cc(C(=O)NO)ccc2C1)c1ccccc1 [N-hydroxy-4-(2-methyl-2-phenylpropanoyl)-2,3,4,5-tetrahydrobenzo[f][1,4]oxazepine-8-carboxamide] here?
Answer: 100 to 500 nM

Question: How did the IC50 turn out when COC(C)(C)CC(=O)N1Cc2ccc(C(=O)NO)cc2OC[C@@H]1C [(S)-N-hydroxy-4-(3-methoxy-3-methylbutanoyl)-3-methyl-2,3,4,5-tetrahydrobenzo[f][1,4]oxazepine-8-carboxamide] was run?
Answer: ≤ 100 nM

Question: With CC(C)(C)OC(=O)N1CCC2(CC1)CC2C(=O)N1CCOc2cc(C(=O)NO)ccc2C1 (centres unmarked) [tert-butyl 1-(8-(hydroxycarbamoyl)-2,3,4,5-tetrahydrobenzo[f][1,4]oxazepine-4-carbonyl)-6-azaspiro[2.5]octane-6-carboxylate] as the compound, how does the IC50 read?
Answer: 100 to 500 nM

Question: Which IC50 does the source give for O=C(NO)c1ccc2c(c1)OCCN(C(=O)c1ccccc1)C2 [4-benzoyl-N-hydroxy-2,3,4,5-tetrahydrobenzo[f][1,4]oxazepine-8-carboxamide] here?
Answer: ≤ 100 nM

Question: Which IC50 does the source give for O=C(NO)c1ccc2c(c1)OCCN(C(=O)C1(c3cccc(Cl)c3)CC1)C2 [4-(1-(3-chlorophenyl)cyclopropane-1-carbonyl)-N-hydroxy-2,3,4,5-tetrahydrobenzo[f][1,4]oxazepine-8-carboxamide] here?
Answer: ≤ 100 nM

Question: For COC1CCC(C(=O)N2CCOc3cc(C(=O)NO)ccc3C2)CC1 (centres unmarked) [N-hydroxy-4-(4-methoxycyclohexane-1-carbonyl)-2,3,4,5-tetrahydrobenzo[f][1,4]oxazepine-8-carboxamide], which IC50 is on record?
Answer: ≤ 100 nM

Question: Which IC50 does the source give for COc1ccc(CC(=O)N2CCOc3cc(C(=O)NO)ccc3C2)cc1 [N-hydroxy-4-(2-(4-methoxyphenyl)acetyl)-2,3,4,5-tetrahydrobenzo[f][1,4]oxazepine-8-carboxamide] here?
Answer: > 500 nM

Question: With C[C@H]1CN(C(=O)C2(C)CCC2)Cc2ccc(C(=O)NO)cc2O1 [(S)-N-hydroxy-2-methyl-4-(1-methylcyclobutane-1-carbonyl)-2,3,4,5-tetrahydrobenzo[f][1,4]oxazepine-8-carboxamide] as the compound, how does the IC50 read?
Answer: 100 to 500 nM

Question: For O=C(NO)c1ccc2c(c1)OCCN(C(=O)C1CCCC1)C2 [4-(cyclopentanecarbonyl)-N-hydroxy-2,3,4,5-tetrahydrobenzo[f][1,4]oxazepine-8-carboxamide], which IC50 is on record?
Answer: ≤ 100 nM

Question: With O=C1CN(C(=O)C2CCCCC2)Cc2cc(C(=O)NO)ccc2N1 [4-(cyclohexanecarbonyl)-N-hydroxy-2-oxo-2,3,4,5-tetrahydro-1H-benzo[e][1,4]diazepine-7-carboxamide] as the compound, how does the IC50 read?
Answer: > 500 nM

Question: With O=C(NO)c1ccc2c(c1)OCCN(C(=O)C1CC13CCNCC3)C2 (centres unmarked) [N-hydroxy-4-(6-azaspiro[2.5]octane-1-carbonyl)-2,3,4,5-tetrahydrobenzo[f][1,4]oxazepine-8-carboxamide] as the compound, how does the IC50 read?
Answer: 100 to 500 nM

Question: With O=C(NO)c1ccc2c(c1)OCCN(C(=O)C1(c3ccc(Cl)cc3)CC1)C2 [4-(1-(4-chlorophenyl)cyclopropane-1-carbonyl)-N-hydroxy-2,3,4,5-tetrahydrobenzo[f][1,4]oxazepine-8-carboxamide] as the compound, how does the IC50 read?
Answer: ≤ 100 nM

Question: COCCC(=O)N1Cc2ccc(C(=O)NO)cc2OC[C@@H]1C [(S)-N-hydroxy-4-(3-methoxypropanoyl)-3-methyl-2,3,4,5-tetrahydrobenzo[f][1,4]oxazepine-8-carboxamide] was tested. Which IC50 did it give?
Answer: ≤ 100 nM

Question: For O=C(NO)c1ccc2c(c1)OCCN(C(=O)[C@@H]1CCOC1)C2 [(R)-N-hydroxy-4-(tetrahydrofuran-3-carbonyl)-2,3,4,5-tetrahydrobenzo[f][1,4]oxazepine-8-carboxamide], which IC50 is on record?
Answer: ≤ 100 nM

Question: How did the IC50 turn out when O=C(NO)c1ccc2c(c1)OCCN(C(=O)C1(c3ccc(C(F)(F)F)cc3)CC1)C2 [N-hydroxy-4-(1-(4-(trifluoromethyl)phenyl)cyclopropane-1-carbonyl)-2,3,4,5-tetrahydrobenzo[f][1,4]oxazepine-8-carboxamide] was run?
Answer: ≤ 100 nM
